We go through seven molecules from patent US9775902B2, “Compounds and methods for treatment of stroke” (FIBROGEN, INC, priority 2006, dated 2017).

Like-named read-outs stand apart in the source and are kept apart here.

In assay [1] the test system is erythropoietin (EPO). As to the kind of experiment: EPO expression in Hep3B cells (QUANTIKINE immunoassay of conditioned media). Format: cell-based, Human. Particulars: for Fold Increase Over Control: EPO, vs 1% DMSO control; for EPO: conditioned media after overnight incubation with compound. How it is done:
The effect of compounds of the present invention on expression of cytoprotective and neuroprotective factors in cells was evaluated as follows. Human cells derived from hepatocarcinoma (Hep3B) tissue (see, e.g., American Type Culture Collection, Manassas Va.) were seeded into 35 mm culture dishes and grown at 37° C., 20% O2, 5% CO2 in Minimal Essential Medium (MEM), Earle's balanced salt solution (Mediatech Inc., Herndon Va.), 2 mM L-glutamine, 0.1 mM non-essential amino acids, 1 mM sodium pyruvate, and 10% FBS. When cell layers reached confluence, the media was replaced with OPTI-MEM media (Invitrogen Life Technologies, Carlsbad Calif.) and cell layers were incubated for approximately 24 hours in 20% O2, 5% CO2 at 37° C. Various compounds of the present invention or 1% DMSO (negative control) were then added to existing media and incubation was continued overnight.
Following incubation, the conditioned media was collected from cell cultures and analyzed for erythropoietin (EPO) expression using a QUANTIKINE immunoassay (R&D Systems, Inc., Minneapolis Minn.) according to the manufacturer's instructions.

Another assay has as its system erythropoietin. As to the kind of experiment: Plasma EPO in mice after intravenous injection. In kind it is in vivo, Swiss Webster mice. Particulars: mouse plasma, 20 mg/kg i.v., four hours after injection; for fold induction at 20 mg/kg: iv, 4 h, read-out: EPO Fold Increase. Here is the method: (§1) The effect of compounds of the present invention on expression of cytoprotective and neuroprotective factors in vivo was evaluated as follows. In one series of experiments, male Swiss Webster mice (29-34 g) were administered various compounds of the present invention via intravenous injection into the caudal tail vein. Animals treated by intravenous injection received a 6 ml/kg volume of either 5% Dextrose with an equimolar amount of NaOH or Meglumine (vehicle control) or 20 mg/kg of a compound of the present invention in 5% dextrose with an equimolar amount of NaOH or Meglumine. Four hours after injection, the animals were anesthetized and exsanguinated. Plasma samples were collected in EDTA and heparin coated microtainer tubes. Plasma samples were assayed for erythropoietin and VEGF using commercially-available ELISA kits purchased from R & D Systems (Minneapolis Minn.).

In another assay the test system is VEGF. As to the kind of experiment: Plasma VEGF in mice after intravenous injection. In kind it is in vivo, Swiss Webster mice. Particulars: mouse plasma, 20 mg/kg i.v., four hours after injection; for fold induction at 20 mg/kg: iv, 4 h, read-out: VEGF Fold Increase. Here is the method:
as §1

Assay [2] has as its system erythropoietin (EPO). The assay is described as follows: EPO expression in Kelly neuroblastoma cells. In kind it is cell-based. Particulars: for EPO: conditioned media after overnight incubation. Here is the method:
(§2) The effect of compounds of the present invention on expression of cytoprotective and neuroprotective factors in neuroblastoma cells was evaluated as follows. Kelly neuroblastoma cells (see, e.g., DSMZ, cat# ACC-355, Braunschweig Germany) were treated with various compounds of the present invention or 1% DMSO (negative control). Following an overnight incubation, the conditioned media was collected from cell cultures and analyzed for erythropoietin (EPO) and vascular endothelial growth factor (VEGF) expression using a QUANTIKINE immunoassay (R&D Systems, Inc., Minneapolis Minn.) according to the manufacturer's instructions.

For assay [3], the system named is C57BL/6 mice, permanent occlusion of the MCA. The assay is described as follows: Permanent middle cerebral artery occlusion (pMCAO) in C57BL/6 mice: infarct volume and edema. In kind it is in vivo. Particulars: Mus musculus, iv, 24 h, C57BL/6 mice pMCAO, 20-60 mg/kg i.v., 24 hours after MCA occlusion, read-out: Percent Reduction in Infarct Volume. How it is done: The effect of compounds of the present invention on infarct volume and edema associated with stroke was examined in an animal model of ischemic stroke. In these studies, mice were subjected to permanent occlusion of the middle cerebral artery. Mice were anesthetized intraperitoneally with avertin (0.5 mg/g). Mice were then immobilized in a rodent stereotaxic frame (Kopf Instruments, Tujunga Calif.) and maintained with avertin as needed. The surgical area of the head was swabbed with 70% ethanol and a lateral incision was made between the right orbit and the right ear. […] The distal course of the middle cerebral artery (MCA) was visible through the translucent skull. A small burr-hole craniotomy was performed with a micro-drill (Fine Science Tools, Foster City Calif.). The meninges/dura was removed and the MCA was coagulated by bipolar diathermy. The muscle and soft tissue were replaced and the incision closed with vet-bond adhesive (3M, St. Paul Minn.). These studies were performed in two different mouse models of pMCAO as described below.
In one series of experiments, male C57BL/6 mice (25-35 g) were subjected to permanent occlusion of the MCA as described above. Compounds of the present invention were administered by intravenous injection at various times before or after MCA occlusion (see Table 7). Animals administered compound by intravenous injection received a 6 ml/kg volume of either 5% Dextrose with an equimolar amount of Meglumine (vehicle control) or 20-60 mg/kg of a compound of the present invention in 5% dextrose with an equimolar amount of Meglumine. Body temperature of the animals was maintained by use of a heating pad both during and after surgery. Twenty-four hours after MCA occlusion animals were euthanized with CO2 and their brains removed. After removal, the brain was sliced in 7 coronal sections, each 1 mm thick. The sections were placed rostral side down in a petri dish and stained with 1% Triphenyl tetrazolium chloride for 20 minutes at 37° C. for determination of infarct volume. Brain sections were then digitally photographed and analyzed for changes in infarct volume and extent of edema. Infarct volumes were determined by measuring the infarcted (i.e., non-stained) areas of each brain section and multiplying this value by the section thickness. Extent of edema was determined by the net increase in volume of the ipsilateral cortex compared to that of the contralateral cortex of brain sections.
The effect of compounds of the present invention administered at various times following the onset of stroke was examined further as follows. In these studies, changes in infarct volume were measured using an animal model of stroke when compounds of the present invention were administered from 0 to 8 hours following permanent MCA occlusion. In one series of experiments, male C57BL/6 mice (25-35 g) were subjected to permanent occlusion of the MCA as described above. Compound F was administered to the animals by a single intravenous bolus injection at various times up to 5 hours after MCA occlusion (see Table 8 below). Animals administered compound by intravenous injection received a 6 ml/kg volume of either 5% Dextrose with an equimolar amount of NaOH (vehicle control) or 60 mg/kg of Compound F in 5% dextrose with an equimolar amount of NaOH. Body temperature of the animals was maintained by use of a heating pad both during and after surgery. Changes in infarct volumes were determined as described above.
In another set of experiments, male C57BL/6 mice (25-35 g) were subjected to permanent occlusion of the MCA as described above. Compound F was administered by single intravenous bolus injection at various times up to 8 hours after MCA occlusion (see Table 9 below). Animals administered compound by intravenous injection received a 6 ml/kg volume of either 5% Dextrose with an equimolar amount of Meglumine (vehicle control) or 60 mg/kg of Compound F in 5% dextrose with an equimolar amount of Meglumine. […]

In assay [4] the test system is vascular endothelial growth factor (VEGF). As to the kind of experiment: VEGF expression in Kelly neuroblastoma cells. Particulars: for VEGF: conditioned media after overnight incubation. In kind it is cell-based. How it is done: as §2
Where [5] appears, read: compound given 4 hr after occlusion.

Regarding `N#Cc1nc(C(=O)NCC(=O)O)c(O)c2cc(Oc3ccc4c(c3)OCO4)ccc12` [Compound AN, {[6-(Benzo[1,3]dioxol-5-yloxy)-1-cyano-4-hydroxy-isoquinoline-3-carbonyl]-amino}-acetic acid], in the assay on erythropoietin (EPO) [1], the “Fold Increase Over Control” value was 16.2. Further, the results for the EPO in the assay on erythropoietin (EPO) [1], with erythropoietin (mouse EPO ELISA kit (**)) and in the assay with erythropoietin (EPO) [2] were 42.8 mIU/ml, 14964 pg/mL and 251 mIU/ml, respectively. Moreover, the fold induction at 20 mg/kg with erythropoietin was found to be 26.2; in the assay with VEGF, 1.05. Besides, the VEGF in the assay on VEGF was found to be 39 pg/mL; in assay [4], 7252 pg/mL. Also, the “EPO Fold Increase” value with erythropoietin (EPO) [2] was determined as 13.28. Moreover, the inhibition in vivo at up to 20 mg/kg in assay [3] (setting [5]) worked out at 46%. Further, in assay [4], the “VEGF Fold Increase” value is on record as 5.3.
For the molecule `Cc1nc2ccc(Oc3ccc4c(O)c(C(=O)NCC(=O)O)ncc4c3)cc2o1` [Compound N, {[4-Hydroxy-7-(2-methyl-benzooxazol-6-yloxy)-isoquinoline-3-carbonyl]-amino}-acetic acid], in the assay on erythropoietin (EPO) [1], the “Fold Increase Over Control” value was found to be 13.5 and the EPO was determined as 89.9 mIU/ml. In addition, the fold induction at 20 mg/kg with erythropoietin came out at 70.2. For the same molecule, the EPO in the assay on erythropoietin (mouse EPO ELISA kit (**)) was found to be 63.2 pg/mL. For the same molecule, in the assay on VEGF, the fold induction at 20 mg/kg amounted to 2.28 and the VEGF is 66 pg/mL. Also, in the assay with erythropoietin (EPO) [2], the “EPO Fold Increase” value is 14.52 and the EPO is 380.5 mIU/ml. The inhibition in vivo at up to 20 mg/kg in assay [3] (compound given 0 hr) came to 46%. Moreover, in assay [4], the “VEGF Fold Increase” value was found to be 4.6 and the VEGF came out at 6316 pg/mL.
With `N#Cc1nc(C(=O)NCC(=O)O)c(O)c2cc(Oc3ccc4c(c3)CCO4)ccc12` [Compound AO, {[1-Cyano-6-(2,3-dihydro-benzofuran-5-yloxy)-4-hydroxy-isoquinoline-3-carbonyl]-amino}-acetic acid], in the assay on erythropoietin (EPO) [1], the “Fold Increase Over Control” value is 83.4 and the EPO was determined as 83.4 mIU/ml. In the assay with erythropoietin, the fold induction at 20 mg/kg was 92.8. Further, the EPO in the assay on erythropoietin (mouse EPO ELISA kit (**)) was found to be 12719 pg/mL. For the same molecule, in the assay on VEGF, the fold induction at 20 mg/kg was 0.97 and the VEGF was 38 pg/mL. Further, in the assay with erythropoietin (EPO) [2], the “EPO Fold Increase” value was 19.55 and the EPO was 369.5 mIU/ml. Further, in assay [3] (setting [5]), the inhibition in vivo at up to 20 mg/kg amounted to 55%. Also, in assay [4], the “VEGF Fold Increase” value is given as 4.6 and the VEGF came out at 6653 pg/mL.
In the case of `N#Cc1nc(C(=O)NCC(=O)O)c(O)c2c(Oc3ccccc3)cccc12` [Compound AM, [(1-Cyano-4-hydroxy-5-phenoxy-isoquinoline-3-carbonyl)-amino]-acetic acid], in the assay on erythropoietin (EPO) [1], the “Fold Increase Over Control” value worked out at 8.2 and the EPO was 44.3 mIU/ml. In the assay on erythropoietin, the fold induction at 20 mg/kg came to 235. The same molecule returned an EPO in the assay with erythropoietin (mouse EPO ELISA kit (**)) of 28206 pg/mL. In the assay with VEGF, the fold induction at 20 mg/kg came to 0.38 and the VEGF worked out at 24 pg/mL. In the assay on erythropoietin (EPO) [2], the “EPO Fold Increase” value came out at 6.25 and the EPO worked out at 118.07 mIU/ml. Besides, in assay [3] (setting [5]), the inhibition in vivo at up to 20 mg/kg was 71%. Further, in assay [4], the “VEGF Fold Increase” value came out at 4.0 and the VEGF was determined as 5825 pg/mL.
As for `N#Cc1nc(C(=O)NCC(=O)O)c(O)c2ccc(Oc3ccc(F)cc3)cc12` [Compound R, {[1-Cyano-7-(4-fluoro-phenoxy)-4-hydroxy-isoquinoline-3-carbonyl]-amino}-acetic acid], in the assay with erythropoietin (EPO) [1], the “Fold Increase Over Control” value is reported as 25.3 and the EPO came out at 49.1 mIU/ml. For the same molecule, the fold induction at 20 mg/kg in the assay on erythropoietin turned out to be 52.4. Further, the EPO with erythropoietin (mouse EPO ELISA kit (**)) was 555.5 pg/mL. Moreover, in the assay on VEGF, the fold induction at 20 mg/kg stood at 1.38 and the VEGF was determined as 54 pg/mL. For the same molecule, in the assay on erythropoietin (EPO) [2], the “EPO Fold Increase” value was determined as 19.71 and the EPO came out at 372.6 mIU/ml. Moreover, the inhibition in vivo at up to 20 mg/kg in assay [3] (compound given 0 hr) was found to be 32%. Also, in assay [4], the “VEGF Fold Increase” value is reported as 7.4 and the VEGF worked out at 2735 pg/mL.
As to `O=C(O)CNC(=O)c1nc(Br)c2ccsc2c1O` [Compound AE, [(4-Bromo-7-hydroxy-thieno[3,2-c]pyridine-6-carbonyl)-amino]-acetic acid], in the assay on erythropoietin (EPO) [1], the “Fold Increase Over Control” value was 3.0 and the EPO was 12.6 mIU/ml. The EPO in the assay on erythropoietin (mouse EPO ELISA kit (**)) was 3825 pg/mL. Besides, in the assay on VEGF, the fold induction at 20 mg/kg was 1.45 and the VEGF was determined as 29 pg/mL. Also, in the assay with erythropoietin (EPO) [2], the “EPO Fold Increase” value amounted to 3.6 and the EPO was 95.5 mIU/ml. The inhibition in vivo at up to 20 mg/kg in assay [3] (setting [5]) is 63%. In addition, in assay [4], the “VEGF Fold Increase” value was determined as 2.7 and the VEGF is 3710.0 pg/mL.
Consider `O=C(O)CNC(=O)c1ncc2cc(Oc3ccccc3)ccc2c1O` [Compound AC, [(4-Hydroxy-7-phenoxy-isoquinoline-3-carbonyl)-amino]acetic acid], for which, in the assay with erythropoietin (EPO) [1], the “Fold Increase Over Control” value stood at 10.8 and the EPO came to 160.1 mIU/ml. Further, in the assay on erythropoietin, the fold induction at 20 mg/kg stood at 2940. This molecule displayed an EPO with erythropoietin (human EPO ELISA kit (*)) of 294 mIU/ml. Also, in the assay on VEGF, the fold induction at 20 mg/kg came out at 2.15 and the VEGF came to 70 pg/mL. In the assay with erythropoietin (EPO) [2], the “EPO Fold Increase” value is 11.9 and the EPO worked out at 73.8 mIU/ml. The inhibition in vivo at up to 20 mg/kg in assay [3] (compound given 0 hr) is 17%. In assay [4], the “VEGF Fold Increase” value turned out to be 15.8 and the VEGF is 2503.8 pg/mL.
